Test results reported in patent US12678447B2, “Combinations of RIPK1- and IKK-inhibitors for the prevention or treatment of immune diseases” (Universität zu Köln, priority 2017, dated 2026).
“Also recorded” adds a separate entry of the source.

Tested on: bone marrow derived macrophages (BMDMs)
Assay: LPS-induced IL-1β secretion in BMDMs treated with IKK2 inhibitors (ELISA)
Type: cell-based, mouse
Procedure: Bone marrow was isolated from the tibiae and femurs of one WT and one Ripk1^D138N/D138N mouse (6-7 week old). Bone marrow from one leg of each mouse was immediately frozen Bone marrow cells from the other leg were spun down at 1200 rpm, for 5 min and seeded in 15 cm^2 non-treated cell culture plates in 20 ml of medium containing 10 ng/ml M-CSF. Cells were allowed to differentiate for six days and subsequently adherent BMDMs were lifted, counted and seeded at a density of 2×10^5 cells/well in a 48 well plate. The day after, cells were pretreated with different concentrations of the IKK2 inhibitors for 30 min before stimulation with 100 ng/ml LPS in a total volume of 250 μl. Each experimental condition was assayed in triplicate. 20-24 h later supernatants were removed, cleared from floating cells and were frozen until cytokine measurements. IL-1β concentration was determined with a specific ELISA (eBioscience) following the manufacturer's instructions.
For the experiment with Nec1 the frozen bone marrow cells were used. After thawing, macrophages were differentiated as described above for fresh bone marrow cells. Necrostatin-1 (Nec-1) was added together with the IKK2 inhibitors during the 30 min pretreatment BMDMs were stimulated with LPS for 20-24 h and supernatants were kept for ELISA measurements. […]

SMILES | amount of secreted IL-1β (LPS-induced, in BMDMs treated with IKK2 inhibitors) (Nec1 added together with IKK2 inhibitors during 30 min pretreatment, 100 ng/ml LPS for 20-24 h, FIG. 1B) | IL-1β secretion upon LPS stimulation (WT BMDMs pretreated 30 min with IKK2 inhibitor, then 100 ng/ml LPS for 20-24 h, IL-1β ELISA of supernatant)
CN1C(=O)C(Cc2c[nH]c3ccccc23)NC1=S (centres unmarked) [Necrostatin-1, 5-(1H-indo1-3-ylmethyl)-3-methyl-2-thioxo-4-imidazolidinone] | strongly diminished the LPS-induced production of IL-1β; also recorded: strongly reduced the amount of secreted IL-1β | –
NC(=O)Nc1sc(-c2ccc(F)cc2)cc1C(N)=O [TPCA-1] | – | greater potency
